Reference: patent US20220205982A1 (CHILDREN'S HOSPITAL MEDICAL CENTER, priority 2019, published 2022)

Tests used:
[1] = Real-time PK study of melphalan in whole blood by PS-MS/MS in patients undergoing HSCT; format: in vivo; conditions: human, intravenous
Description: Patients undergoing HSCT were administered by intravenous infusion a low dose of melphalan (referred to as the ‘test’ dose) to first determine each patient's individualized pharmacokinetics of the drug. After that the personalized optimal full dose was calculated from these measurements and then administered. The test dose equated to 10% of the expected standard full dose for each patient. Blood samples for pharmacokinetic measurement were collected after the test dose and again after the full standard dose of melphalan. Samples were collected at baseline, 5-10 mins before drug infusion, and then 5 min, 15 min, 30 min, 45 min, 1 h, 2h, 2.5h, 4h, and 6h post-infusion. […] Plasma samples from the same blood draw were also obtained after centrifugation at 3000 rpm for 15 min and stored at −80° C. degree until analyzed by both PS-MS/MS and LC-ESI-MS/MS. […]
PS-MS/MS was performed on an automated PS ion source (Prosolia, Inc. Indianapolis, Ind.) interfaced with a TSQ Quantum Ultra mass spectrometer (Thermo Scientific, San Jose, Calif.). […] A total of 50 scans in positive ion mode were acquired over 1 min for each m/z transition monitored. The transitions m/z 305.3 →246.2 for melphalan and the corresponding transition m/z 313.3→254.2 for the I.S. were used for quantification, while the transition m/z 305.3→194.2 served as a qualifier for melphalan confirmation. […]

[2] = PK of melphalan in plasma by ESI-LC-MS/MS in patients undergoing HSCT; format: in vivo; conditions: human, intravenous
Description: Patients undergoing HSCT were administered by intravenous infusion a low dose of melphalan (referred to as the ‘test’ dose) to first determine each patient's individualized pharmacokinetics of the drug. After that the personalized optimal full dose was calculated from these measurements and then administered. The test dose equated to 10% of the expected standard full dose for each patient. Blood samples for pharmacokinetic measurement were collected after the test dose and again after the full standard dose of melphalan. Samples were collected at baseline, 5-10 mins before drug infusion, and then 5 min, 15 min, 30 min, 45 min, 1 h, 2h, 2.5h, 4h, and 6h post-infusion. The blood samples were collected on ice and immediately transferred to the lab for PS-MS/MS analysis after collection to minimize drug degradation. Plasma samples from the same blood draw were also obtained after centrifugation at 3000 rpm for 15 min and stored at −80° C. degree until analyzed by both PS-MS/MS and LC-ESI-MS/MS.
Each patient's pharmacokinetic profile was determined using WinNonlin v6.4 (Pharsight, Mountain View, Calif.). […]
The PS-MS\MS method was validated in accordance with the FDA guidance for Bioanalytical Method Validation (fda.gov/downloads/Drugs/Guidance/ucm070107.pdf, May 2011), and Bansa S, et al., AAPS J., 2007, 9, 109-114. Specifically, three analytical runs were processed and analyzed to assess sensitivity, reproducibility, accuracy and precision. […] The assay accuracy was evaluated by comparing results obtained by PS-MS/MS to those obtained by a validated in-house LC-MS/MS melphalan assay for the same samples, wherein melphalan samples were measured by liquid chromatography-tandem mass spectrometry (LC-MS/MS) with selected-reaction monitoring and with the use of stable isotopic-labeled [2H8]-melphalan as the internal standard. Samples were analyzed with the LC20AD HPLC system (Shimadzu) coupled to the TSQ Quantum Ultra Triple Quadrupole Mass Spectrometer (Thermo Scientific). […]

N[C@@H](Cc1ccc(N(CCCl)CCCl)cc1)C(=O)O [melphalan, 4-[Bis(2-chloroethyl)amino]-L-phenylalanine]
AUC ([1]; 10 % of the expected standard full dose, lower test doses, PS-MS/MS, n=4, read-out: calculated mean AUC): 410 ± 230 ng·h/mL
AUC ([1]; full dose, PS-MS/MS method, n=5, read-out: calculated mean AUC): 4900 ± 1500 ng·h/mL
AUC ([2]; 10 % of the expected standard full dose, lower test doses, ESI-LC-MS/MS, n=4, read-out: calculated mean AUC): 430 ± 210 ng·h/mL
AUC ([2]; Full Dose, individual patients and mean row, read-out: ESI-LC-MS/MS Plasma AUC): 3900 ng·h/mL
AUC ([2]; full dose, ESI-LC-MS/MS method, n=5, read-out: calculated mean AUC): 4300 ± 1000 ng·h/mL
